Key:
[1] = tested on: monocyte/macrophage recruitment; assay: Thioglycollate (TG)-induced mouse model of peritonitis: peritoneal lavage monocyte/macrophage counts; format: in vivo; conditions: dexamethasone 1 mg/kg QD PO Days 1-5; 48 h post-TG
Description: A murine thioglycollate (TG)-induced model of peritonitis, where acute inflammation induced by intraperitoneal (IP) injection of TG results in a rapid increase in monocyte/macrophage migration into the peritoneal cavity, was employed to assess the effects of CVC on cell recruitment in vivo. The protocol was approved by the IACUC of Charles River Laboratories Preclinical Services, Montreal (PCS-MTL). The care and use of animals was conducted in accordance with the guidelines of the US National Research Council and the Canadian Council on Animal Care.
Male C57BL/6 mice (n = 44; 8–10 weeks of age; Charles River Laboratories, Canada) were allocated to receive treatments via oral gavage (PO) on Days 1–5 in the following groups: non-disease control, vehicle control twice daily (BID), CVC 5 mg/kg/day (CVC5) BID, CVC 20 mg/kg/day (CVC20) BID, CVC 100 mg/kg/day (CVC100) BID, CVC20 QD, and positive control dexamethasone (corticosteroid known to reduce inflammation in a variety of animal models) 1 mg/kg QD (S1 Table). On Day 4, peritonitis was induced via IP injection of TG 3.85% (1 mL/animal) 2 hours post-dose in all groups except non-disease controls. Study endpoints included: peritoneal lavage cell counts and pharmacokinetic (PK) evaluation. Animals were sacrificed 48 hours post-TG injection by isoflurane inhalation, and peritoneal lavage and blood samples (0.7 mL) were collected. Differential cell counts were assessed in peritoneal lavage samples using an Advia® Hematology System (Siemens Healthcare Diagnostics, USA) with multispecies software and an analysis software designed for mouse peritoneal fluid on Advia® 120 (LabThruPut, USA). A 0.3 mL aliquot of the blood sample was processed to plasma for PK analysis.
(§1) In the peritonitis mouse model, one-way analysis of variance with post-hoc Dunnett’s test was performed, using GraphPad Prism® (GraphPad Software, Inc., USA), on differential cell counts obtained from lavage in treatment groups versus the vehicle-control group. For the ex vivo migration of mouse monocytes, statistical significance was determined by a Student’s t test.

[2] = tested on: CCL2-mediated chemotaxis of activated murine macrophages (F4/80+/CD11b+); assay: Ex vivo CCL2-induced chemotaxis of activated mouse macrophages (Transwell); format: cell-based; conditions: CCL2-stimulated cells (1 nM CCL2), no CVC, 2 hours
Description: Mouse monocyte migration in response to CVC treatment was assessed ex vivo in triplicate. TG was injected intraperitoneally into male C57BL/6 mice (n = 3; 8–10 weeks of age; Jackson Laboratory, USA) and activated macrophages were collected 48 hours later by peritoneal lavage. Chemotaxis was assayed using a Transwell® Chamber (Costar, USA) with a 5 μm-pore size polycarbonate filter, as previously described. Briefly, cells were incubated for 2 hours in the presence of 1 nM CCL2 and/or 1 μM CVC (dissolved in dimethyl sulfoxide with 0.5% acetic acid and diluted 1:1000 with serum-free Roswell Park Memorial Institute-1640 medium and 0.5% bovine serum albumin). Cells were harvested from the lower compartment and analyzed by flow cytometry to enumerate F4/80^+CD11b^+ macrophages using a 3-laser BD FACSCanto™ (BD Biosciences, Canada). Results were analyzed using FlowJo software (Tree Star Inc., USA).
as §1

C[C@@H]1C[C@H]2[C@@H]3CCC4=CC(=O)C=C[C@]4(C)[C@@]3(F)[C@@H](O)C[C@]2(C)[C@@]1(O)C(=O)CO [dexamethasone, reference compound]
Decrease in peritoneal lavage monocyte/macrophage counts compared to vehicle control [1]: 38.1%

CCL2: C-C chemokine ligand type 2, chemotaxis stimulus for activated macrophages [reference compound]
Average fold change in migrating cells (±SD) compared to untreated and unstimulated cells [2]: 4.6±0.9 fold
